Literature values in patent US7723036B2, “Assessing response to anti-CD20 therapy by genotyping C1q components” (The University of Iowa Research Foundation, priority 2005, dated 2010).
Structures can show the parent of a compound that is named as a salt.

How the values were obtained:
[1] = in vivo
[2] = oral radioactive lomustine 30 mg/m^2 to 100 mg/m^2; within 24 hours
[3] = in vivo; remark: listed apart in the source

| Structure (SMILES) | oral absorption (in words) [1] | radioactivity given excreted in the form of degradation products [2] | administered dose recovered in the feces after biliary excretion [3] |
| --- | --- | --- | --- |
| COc1cccc2c1C(=O)c1c(O)c3c(c(O)c1C2=O)C[C@@](O)(C(=O)CO)C[C@@H]3O[C@H]1C[C@H](N)[C@H](O)[C@H](C)O1 [Doxorubicin, 5,12-Naphthacenedione, (8s-cis)-10-((3-amino-2,3,6-trideoxy-a-L-lyxo-hexopyranosyl)oxy)-7,8,9,10-tetrahydro-6,8,11-trihydroxy-8-(hydroxyacetyl)-1-methoxy-hydrochloride] | absorbed poorly | – | – |
| COc1cccc2c1C(=O)c1c(O)c3c(c(O)c1C2=O)C[C@@](O)(C(C)=O)C[C@@H]3O[C@H]1C[C@H](N)[C@H](O)[C@H](C)O1 [Daunorubicin, 5,12-Naphthacenedione, (8S-cis)-8-acetyl-10-((3-amino-2,3,6-trideoxy-a-L-lyxo-hexanopyranosyl)oxy)-7,8,9,10-tetrahydro-6,8,11-trihydroxy-10-methoxy-, hydrochloride] | poor | – | – |
| O=NN(CCCl)C(=O)NC1CCCCC1 [Lomustine, 1-(2-chloro-ethyl)-3-cyclohexyl-1 nitrosourea] | – | about half | – |
| O=C(O)CCCc1ccc(N(CCCl)CCCl)cc1 [Chlorambucil, 4-(bis(2-chlorethyl)amino) benzenebutanoic acid] | rapidly and completely absorbed | – | – |
| N.N.[Cl][Pt][Cl] [Cisplatin] | not absorbed orally | – | – |
| CC[C@]1(O)C[C@@H]2CN(CCc3c([nH]c4ccccc34)[C@@](C(=O)OC)(c3cc4c(cc3OC)N(C)[C@H]3[C@@](O)(C(=O)OC)[C@H](OC(C)=O)[C@]5(CC)C=CCN6CC[C@]43[C@@H]65)C2)C1 [Vinblastine] | Unpredictable absorption | – | about 10% |
| CC[C@]1(O)C[C@H]2CN(CCc3c([nH]c4ccccc34)[C@@](C(=O)OC)(c3cc4c(cc3OC)N(C=O)[C@H]3[C@@](O)(C(=O)OC)[C@H](OC(C)=O)[C@]5(CC)C=CCN6CC[C@]43[C@@H]65)C2)C1 [Vincristine] | Unpredictable absorption | – | – |
